Experimental data taken from ChEMBL document CHEMBL1833803, “Discovery of 1-amino-5H-pyrido[4,3-b]indol-4-carboxamide inhibitors of Janus kinase 2 (JAK2) for the treatment of myeloproliferative disorders” (J Med Chem, 2011).
Converted amounts (≈) assume the structure as drawn.

Key:
[1] = biological target: T1, Tyrosine-protein kinase JAK2 (Homo sapiens, UniProt O60674); test: Inhibition of JAK2 using biotin-EQEDEPEGDYFEWLE- NH2 as substrate
[2] = biological target: T2, Tyrosine-protein kinase JAK3 (Homo sapiens, UniProt P52333); test: Inhibition of JAK3 using biotin-EQEDEPEGDYFEWLE- NH2 as substrate
T2 sequence (P52333 whole entry): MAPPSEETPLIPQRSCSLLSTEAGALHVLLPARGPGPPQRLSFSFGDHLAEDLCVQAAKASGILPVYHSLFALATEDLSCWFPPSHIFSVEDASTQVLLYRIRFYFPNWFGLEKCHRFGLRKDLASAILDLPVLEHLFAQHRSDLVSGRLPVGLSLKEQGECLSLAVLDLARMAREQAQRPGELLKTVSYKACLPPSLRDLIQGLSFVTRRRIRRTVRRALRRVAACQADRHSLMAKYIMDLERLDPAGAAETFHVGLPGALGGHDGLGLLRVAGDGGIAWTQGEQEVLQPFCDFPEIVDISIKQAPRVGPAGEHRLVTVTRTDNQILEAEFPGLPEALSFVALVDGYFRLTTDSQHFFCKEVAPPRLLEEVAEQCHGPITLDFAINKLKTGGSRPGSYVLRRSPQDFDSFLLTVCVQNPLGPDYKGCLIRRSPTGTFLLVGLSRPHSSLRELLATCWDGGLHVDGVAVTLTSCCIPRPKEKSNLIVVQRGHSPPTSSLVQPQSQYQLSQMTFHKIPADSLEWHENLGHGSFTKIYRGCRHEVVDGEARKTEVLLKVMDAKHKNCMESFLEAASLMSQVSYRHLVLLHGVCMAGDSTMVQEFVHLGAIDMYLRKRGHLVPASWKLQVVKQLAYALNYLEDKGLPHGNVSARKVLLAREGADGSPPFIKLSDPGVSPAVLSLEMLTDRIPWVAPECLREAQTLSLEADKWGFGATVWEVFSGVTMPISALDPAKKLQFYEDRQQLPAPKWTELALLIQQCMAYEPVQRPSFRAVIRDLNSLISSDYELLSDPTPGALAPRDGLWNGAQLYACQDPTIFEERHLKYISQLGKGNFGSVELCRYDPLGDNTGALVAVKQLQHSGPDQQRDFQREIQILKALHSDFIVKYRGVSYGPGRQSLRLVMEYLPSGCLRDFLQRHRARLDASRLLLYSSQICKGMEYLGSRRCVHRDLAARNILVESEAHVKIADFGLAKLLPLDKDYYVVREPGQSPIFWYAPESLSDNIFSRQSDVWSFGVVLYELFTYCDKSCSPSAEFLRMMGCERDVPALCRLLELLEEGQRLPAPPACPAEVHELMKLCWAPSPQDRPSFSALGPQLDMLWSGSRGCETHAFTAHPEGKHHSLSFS

[3] = biological target: T1, Tyrosine-protein kinase JAK2; test: Inhibition of JAK2-mediated STAT5 phosphorylation in human HEL 92.1.7 irf1-bla cells; assay type: cell-based
CYP2C9 = CYP2C9 (Homo sapiens, UniProt P11712); test: Inhibition of CYP2C9 at 10 uM; assay type: ADME
[4] = biological target: Voltage-gated inwardly rectifying potassium channel KCNH2 (Homo sapiens, UniProt Q12809); test: Inhibition of human hERG
[5] = Clearance in rat at 1 mg/kg, iv; assay type: ADME, organism-based; set-up: dose 1 mg/kg, route intravenous; conditions: in vivo
[6] = Selectivity ratio of IC50 for JAK3 to IC50 for JAK2
CYP3A4 = CYP3A4 (Homo sapiens, UniProt P08684); test: Inhibition of CYP3A4 at 10 uM; assay type: ADME
[7] = Plasma clearance in rat at 1 mg/kg, iv and 2 mg/kg, po; assay type: ADME, organism-based
[8] = Lipophilicity, log D of the compound at pH 7.4; assay type: physicochemical; conditions: buffer
[9] = biological target: T2, Tyrosine-protein kinase JAK3; test: Inhibition of JAK3
[10] = Oral bioavailability in rat at 2 mg/kg; assay type: ADME, organism-based; conditions: in vivo
[11] = biological target: T1, Tyrosine-protein kinase JAK2; test: Inhibition of JAK2
[12] = biological target: T1, Tyrosine-protein kinase JAK2; test: Competitive inhibition of JAK2 in the presence of 15 uM ATP
[13] = Aqueous solubility of the compound; assay type: physicochemical; conditions: buffer
[14] = biological target: T1, Tyrosine-protein kinase JAK2; test: Competitive inhibition of JAK2 in the presence of 2 mM ATP
[15] = Metabolic stability in rat hepatocytes assessed as half life; assay type: ADME, cell-based, Liver, Hepatocyte
[16] = Half life in rat at 1 mg/kg, iv; assay type: ADME, organism-based; set-up: dose 1 mg/kg, route intravenous; conditions: in vivo
[17] = Plasma clearance in rat at 2 mg/kg, iv and 4 mg/kg, po; assay type: ADME, organism-based
[18] = biological target: Non-receptor tyrosine-protein kinase TYK2 (Homo sapiens, UniProt P29597); test: Inhibition of TYK2
[19] = Oral bioavailability in rat at 4 mg/kg; assay type: ADME, organism-based; conditions: in vivo
[20] = biological target: Tyrosine-protein kinase JAK1 (Homo sapiens, UniProt P23458); test: Inhibition of JAK1
[21] = Bioavailability in rat at 1 mg/kg, iv; assay type: ADME, organism-based; conditions: in vivo

Chain of CYP3A4 (P08684 whole entry): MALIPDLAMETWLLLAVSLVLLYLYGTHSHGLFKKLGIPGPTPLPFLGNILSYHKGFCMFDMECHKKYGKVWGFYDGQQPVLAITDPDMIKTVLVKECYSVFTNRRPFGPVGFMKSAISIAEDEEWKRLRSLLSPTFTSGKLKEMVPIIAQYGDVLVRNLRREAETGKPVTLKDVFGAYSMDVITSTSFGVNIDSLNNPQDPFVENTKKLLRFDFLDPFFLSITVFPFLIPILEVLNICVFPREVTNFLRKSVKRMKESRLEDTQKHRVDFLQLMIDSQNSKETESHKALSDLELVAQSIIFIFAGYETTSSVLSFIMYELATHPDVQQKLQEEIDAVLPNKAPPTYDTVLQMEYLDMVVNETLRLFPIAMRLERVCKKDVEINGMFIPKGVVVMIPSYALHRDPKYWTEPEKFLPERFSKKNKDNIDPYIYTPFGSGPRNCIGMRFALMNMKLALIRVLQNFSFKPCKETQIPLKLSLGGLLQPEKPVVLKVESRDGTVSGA
T1 sequence (O60674 whole entry): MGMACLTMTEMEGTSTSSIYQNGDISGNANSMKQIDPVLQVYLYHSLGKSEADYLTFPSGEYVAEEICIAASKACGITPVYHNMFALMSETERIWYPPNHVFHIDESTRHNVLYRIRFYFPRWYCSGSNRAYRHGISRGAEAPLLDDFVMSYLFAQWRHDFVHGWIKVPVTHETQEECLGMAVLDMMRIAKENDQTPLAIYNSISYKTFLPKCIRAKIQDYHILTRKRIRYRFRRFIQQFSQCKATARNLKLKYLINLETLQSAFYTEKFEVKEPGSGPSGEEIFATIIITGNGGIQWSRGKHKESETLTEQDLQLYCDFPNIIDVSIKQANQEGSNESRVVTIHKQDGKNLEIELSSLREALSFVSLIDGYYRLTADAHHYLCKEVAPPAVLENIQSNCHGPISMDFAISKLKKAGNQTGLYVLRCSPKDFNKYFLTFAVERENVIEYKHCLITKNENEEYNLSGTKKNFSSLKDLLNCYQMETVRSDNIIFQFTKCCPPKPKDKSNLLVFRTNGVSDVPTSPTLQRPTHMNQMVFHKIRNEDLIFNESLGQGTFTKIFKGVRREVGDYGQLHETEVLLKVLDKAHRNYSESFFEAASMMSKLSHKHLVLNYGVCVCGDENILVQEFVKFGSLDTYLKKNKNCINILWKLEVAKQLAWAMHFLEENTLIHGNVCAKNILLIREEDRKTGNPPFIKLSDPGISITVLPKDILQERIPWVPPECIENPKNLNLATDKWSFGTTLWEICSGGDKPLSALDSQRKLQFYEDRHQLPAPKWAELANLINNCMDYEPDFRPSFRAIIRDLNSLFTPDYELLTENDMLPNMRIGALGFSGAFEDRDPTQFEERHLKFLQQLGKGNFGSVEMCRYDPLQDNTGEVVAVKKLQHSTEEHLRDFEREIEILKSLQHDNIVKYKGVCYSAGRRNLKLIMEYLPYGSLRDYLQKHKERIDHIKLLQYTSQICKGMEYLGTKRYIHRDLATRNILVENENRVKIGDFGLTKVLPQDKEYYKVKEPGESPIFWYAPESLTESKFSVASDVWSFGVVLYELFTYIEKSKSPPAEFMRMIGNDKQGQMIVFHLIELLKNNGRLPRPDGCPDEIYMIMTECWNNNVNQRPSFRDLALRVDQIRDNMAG
Chain of Voltage-gated inwardly rectifying potassium channel KCNH2 (Q12809 whole entry): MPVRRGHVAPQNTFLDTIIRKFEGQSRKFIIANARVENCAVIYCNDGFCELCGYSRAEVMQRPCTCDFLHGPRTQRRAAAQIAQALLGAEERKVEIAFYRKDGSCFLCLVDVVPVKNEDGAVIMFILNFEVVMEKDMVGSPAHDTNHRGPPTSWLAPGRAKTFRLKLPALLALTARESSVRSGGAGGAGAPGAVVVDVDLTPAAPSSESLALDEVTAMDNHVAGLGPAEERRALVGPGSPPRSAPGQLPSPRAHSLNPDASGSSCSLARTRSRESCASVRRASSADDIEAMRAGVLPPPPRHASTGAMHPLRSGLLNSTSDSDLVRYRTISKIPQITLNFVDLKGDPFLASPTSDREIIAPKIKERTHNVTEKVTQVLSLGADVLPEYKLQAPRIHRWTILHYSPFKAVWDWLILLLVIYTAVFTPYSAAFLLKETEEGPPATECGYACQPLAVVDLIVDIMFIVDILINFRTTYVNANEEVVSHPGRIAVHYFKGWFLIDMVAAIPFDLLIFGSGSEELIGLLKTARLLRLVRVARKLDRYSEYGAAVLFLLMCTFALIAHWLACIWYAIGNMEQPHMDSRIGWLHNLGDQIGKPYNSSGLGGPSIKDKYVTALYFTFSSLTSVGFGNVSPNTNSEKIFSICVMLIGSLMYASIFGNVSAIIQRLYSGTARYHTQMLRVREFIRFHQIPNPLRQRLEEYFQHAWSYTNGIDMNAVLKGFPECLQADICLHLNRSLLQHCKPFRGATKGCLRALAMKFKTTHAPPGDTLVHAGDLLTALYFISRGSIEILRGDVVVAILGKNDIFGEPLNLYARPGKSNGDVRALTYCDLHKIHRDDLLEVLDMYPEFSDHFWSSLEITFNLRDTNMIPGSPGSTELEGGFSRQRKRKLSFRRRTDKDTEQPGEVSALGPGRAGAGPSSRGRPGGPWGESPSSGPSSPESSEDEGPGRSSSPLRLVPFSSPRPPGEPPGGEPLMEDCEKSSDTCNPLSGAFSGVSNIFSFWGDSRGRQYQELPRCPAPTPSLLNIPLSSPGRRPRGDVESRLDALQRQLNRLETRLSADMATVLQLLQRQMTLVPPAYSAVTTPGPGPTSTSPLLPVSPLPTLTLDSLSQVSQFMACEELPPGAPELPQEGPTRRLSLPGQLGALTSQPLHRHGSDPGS
Chain of CYP2C9 (P11712 whole entry): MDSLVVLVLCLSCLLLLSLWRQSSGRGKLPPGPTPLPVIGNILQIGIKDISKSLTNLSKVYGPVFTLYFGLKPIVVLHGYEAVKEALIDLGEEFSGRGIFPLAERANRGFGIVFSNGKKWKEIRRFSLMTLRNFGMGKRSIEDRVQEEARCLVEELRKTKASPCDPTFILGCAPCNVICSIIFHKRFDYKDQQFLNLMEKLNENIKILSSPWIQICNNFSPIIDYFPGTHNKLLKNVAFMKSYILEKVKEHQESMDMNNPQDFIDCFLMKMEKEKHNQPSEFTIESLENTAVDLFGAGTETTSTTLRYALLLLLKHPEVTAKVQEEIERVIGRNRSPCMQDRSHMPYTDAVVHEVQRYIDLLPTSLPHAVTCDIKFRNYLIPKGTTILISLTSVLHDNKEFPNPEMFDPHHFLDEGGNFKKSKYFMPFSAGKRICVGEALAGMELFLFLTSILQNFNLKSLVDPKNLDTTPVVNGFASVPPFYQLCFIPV
Chain of Non-receptor tyrosine-protein kinase TYK2 (P29597 whole entry): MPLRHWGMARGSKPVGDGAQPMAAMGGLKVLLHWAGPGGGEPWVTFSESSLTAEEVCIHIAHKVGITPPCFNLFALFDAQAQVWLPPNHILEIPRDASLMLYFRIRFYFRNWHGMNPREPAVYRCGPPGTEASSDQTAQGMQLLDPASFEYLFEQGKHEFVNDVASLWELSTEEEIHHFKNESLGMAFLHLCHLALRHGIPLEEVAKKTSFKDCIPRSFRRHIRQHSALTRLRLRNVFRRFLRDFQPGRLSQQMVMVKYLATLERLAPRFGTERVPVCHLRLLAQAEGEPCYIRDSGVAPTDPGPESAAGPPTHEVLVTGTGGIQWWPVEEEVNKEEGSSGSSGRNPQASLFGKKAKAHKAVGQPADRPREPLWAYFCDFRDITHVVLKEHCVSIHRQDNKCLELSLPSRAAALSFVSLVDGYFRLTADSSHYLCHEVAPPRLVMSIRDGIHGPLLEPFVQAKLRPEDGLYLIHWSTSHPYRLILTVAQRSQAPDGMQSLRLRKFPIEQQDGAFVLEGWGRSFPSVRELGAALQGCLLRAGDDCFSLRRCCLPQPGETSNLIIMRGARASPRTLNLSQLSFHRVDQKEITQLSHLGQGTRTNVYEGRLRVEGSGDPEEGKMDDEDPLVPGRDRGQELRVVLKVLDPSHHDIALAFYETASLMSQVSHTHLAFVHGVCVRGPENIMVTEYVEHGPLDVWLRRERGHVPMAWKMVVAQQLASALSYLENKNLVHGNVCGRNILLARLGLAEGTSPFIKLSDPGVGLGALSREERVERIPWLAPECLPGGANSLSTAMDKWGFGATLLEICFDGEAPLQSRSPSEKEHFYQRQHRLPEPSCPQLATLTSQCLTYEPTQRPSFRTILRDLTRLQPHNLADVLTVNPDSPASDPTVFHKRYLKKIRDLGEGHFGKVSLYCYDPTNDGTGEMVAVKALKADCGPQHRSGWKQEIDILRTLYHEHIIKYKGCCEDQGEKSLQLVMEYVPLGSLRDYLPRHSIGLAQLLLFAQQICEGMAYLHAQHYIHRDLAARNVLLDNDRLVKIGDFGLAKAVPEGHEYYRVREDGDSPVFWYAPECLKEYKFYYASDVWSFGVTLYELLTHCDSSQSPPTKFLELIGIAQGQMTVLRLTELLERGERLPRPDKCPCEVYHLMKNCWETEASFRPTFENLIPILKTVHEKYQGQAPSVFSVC

Row | IC50 [1] | IC50 [2] | IC50 [3] | inhibition at 10 µM (CYP2C9) | clearance [5] | Ratio IC50 [6] | inhibition at 10 µM (CYP3A4) | SMILES | also measured
1 | 9 nM | 1900 nM | 530 nM |  |  |  |  | Cn1cc(-c2ccc3c(c2)[nH]c2c(C(N)=O)cnc(N[C@@H](C4CC4)C(F)(F)F)c23)cn1 | 
2 | 1 nM | 220 nM | 29 nM | 35% | 21 mL/min/kg | > 50 | 55% | NC(=O)c1cnc(NC(C2CC2)C2CC2)c2c1[nH]c1cc(-c3cnc(N)nc3)ccc12 | IC50 [4]: 8200 nM
3 |  |  |  |  |  | 0.7 |  | O=c1[nH]ccc2c1c1cc(F)ccc1n2-c1ccccc1 | clearance [7]: 13 mL/min/kg; logD [8]: 4.3; IC50 [9]: 720 nM; bioavailability [10]: 89%; IC50 [11]: 1100 nM
4 | 2 nM | 160 nM | 120 nM |  | 54 mL/min/kg | > 50 |  | NC(=O)c1cnc(N[C@H](C2CC2)C(F)(F)F)c2c1[nH]c1cc(-c3ccc(N4CCS(=O)(=O)CC4)nn3)ccc12 | 
5 | 12 nM | 1700 nM | 350 nM |  |  | > 50 |  | Cn1cc(-c2ccc3c(c2)[nH]c2c(C(N)=O)cnc(N[C@H](C4CCC4)C(F)(F)F)c23)cn1 | 
6 | 5 nM |  |  |  |  | > 50 | 75% | Cn1cc(-c2ccc3c(c2)[nH]c2c(C(N)=O)cnc(NC4CCCCC4)c23)cn1 | IC50 [4]: 620 nM
7 | 230 nM |  |  |  |  | 30 |  | CCNc1ncc(C(N)=O)c2[nH]c3ccc(F)cc3c12 | logD [8]: 2; IC50 [12]: 230 nM; IC50 [9]: 6800 nM; solubility [13]: 6 µM (≈ 1.63 µg/mL); bioavailability [10]: 87%; IC50 [11]: 230 nM; IC50 [14]: > 15000 nM
8 | 3 nM | 210 nM | 95 nM |  |  | > 50 |  | CC(C)C(Nc1ncc(C(N)=O)c2[nH]c3cc(-c4cnn(C)c4)ccc3c12)C1CC1 (stereo not given) | 
9 | 3 nM | 560 nM |  |  |  | > 50 |  | CC(C)[C@@H](Nc1ncc(C(N)=O)c2[nH]c3cc(-c4cnn(C)c4)ccc3c12)C(F)(F)F | 
10 | 1 nM | 220 nM | 32 nM | 61% | 21 mL/min/kg |  | 68% | NC(=O)c1cnc(N[C@H](C2CC2)C(F)(F)F)c2c1[nH]c1cc(-c3cn[nH]c3)ccc12 | 
11 | 2 nM | 370 nM | 61 nM | 41% | 6 mL/min/kg | > 50 | 65% | NC(=O)c1cnc(N[C@H](C2CC2)C(F)(F)F)c2c1[nH]c1cc(-c3ccc(N)nc3)ccc12 | IC50 [4]: 750 nM
12 | 5 nM | 350 nM | 370 nM |  |  | > 50 | 49% | C[C@H](Nc1ncc(C(N)=O)c2[nH]c3cc(-c4cnn(C)c4)ccc3c12)C(C)(C)C | half-life [15]: 0.25 h; IC50 [4]: 29000 nM
13 | 2 nM | 280 nM | 130 nM | 80% | 22 mL/min/kg | > 50 | 62% | Cn1cc(-c2ccc3c(c2)[nH]c2c(C(N)=O)cnc(NC(C4CC4)C4CC4)c23)cn1 | IC50 [4]: 1700 nM; half-life [16]: 3.2 h
14 | 1 nM | 140 nM | 14 nM |  | 44 mL/min/kg | > 50 |  | C[C@H](Nc1ncc(C(N)=O)c2[nH]c3cc(-c4cnn(C)c4)ccc3c12)C1CC1 | half-life [15]: 1.02 h; half-life [16]: 1 h
15 | 2 nM | 170 nM | 45 nM |  |  | > 50 |  | CCC(Nc1ncc(C(N)=O)c2[nH]c3cc(-c4cnn(C)c4)ccc3c12)C1CC1 (stereo not given) | 
16 |  |  |  |  |  | 26 |  | O=c1[nH]ccc2c3[nH]c(-c4ccccc4Cl)nc3c3ccc(F)cc3c12 | logD [8]: 3.6; clearance [17]: 5.4 mL/min/kg; IC50 [18]: 7 nM; IC50 [9]: 77 nM; solubility [13]: < 2 µM; IC50 [11]: 3 nM; bioavailability [19]: 100%; IC50 [20]: 2 nM
17 | 0.4 nM | 230 nM | 41 nM | 66% | 14 mL/min/kg |  | 48% | Cn1cc(-c2ccc3c(c2)[nH]c2c(C(N)=O)cnc(N[C@H](C4CC4)C(F)(F)F)c23)cn1 | half-life [16]: 4.1 h; bioavailability [21]: 65%
18 | 2 nM | 270 nM | 28 nM |  |  | > 50 |  | NC(=O)c1cnc(NC(C2CC2)C2CC2)c2c1[nH]c1cc(-c3cccnn3)ccc12 | 
19 | 11 nM | 740 nM | 79 nM |  |  | > 50 |  | C[C@@H](Nc1ncc(C(N)=O)c2[nH]c3cc(-c4cnn(C)c4)ccc3c12)C1CC1 | 
20 | 8 nM | 430 nM | 530 nM |  | 15 mL/min/kg | > 50 |  | NC(=O)c1cnc(N[C@H](C2CC2)C(F)(F)F)c2c1[nH]c1cc(-c3cnc(N4CCOCC4)nc3)ccc12 | 
21 | 3 nM | 220 nM | 40 nM | 80% | 31 mL/min/kg |  | 66% | NC(=O)c1cnc(NC(C2CC2)C2CC2)c2c1[nH]c1cc(-c3cn[nH]c3)ccc12 | 
22 | 4 nM | 640 nM | 100 nM | 46% |  | > 50 | 65% | NC(=O)c1cnc(NC(C2CC2)C2CC2)c2c1[nH]c1cc(-c3cnc(N)cn3)ccc12 | IC50 [4]: 720 nM
